Assay [1] concerns the target T1, GTPBP5 (GTPBP5::FLAG; GTPBP5^IP) (Homo sapiens, UniProt Q9H4K7).
T1 construct: gene MTG2; Obg-domain and G-domain
T1 sequence (Q9H4K7 1-406): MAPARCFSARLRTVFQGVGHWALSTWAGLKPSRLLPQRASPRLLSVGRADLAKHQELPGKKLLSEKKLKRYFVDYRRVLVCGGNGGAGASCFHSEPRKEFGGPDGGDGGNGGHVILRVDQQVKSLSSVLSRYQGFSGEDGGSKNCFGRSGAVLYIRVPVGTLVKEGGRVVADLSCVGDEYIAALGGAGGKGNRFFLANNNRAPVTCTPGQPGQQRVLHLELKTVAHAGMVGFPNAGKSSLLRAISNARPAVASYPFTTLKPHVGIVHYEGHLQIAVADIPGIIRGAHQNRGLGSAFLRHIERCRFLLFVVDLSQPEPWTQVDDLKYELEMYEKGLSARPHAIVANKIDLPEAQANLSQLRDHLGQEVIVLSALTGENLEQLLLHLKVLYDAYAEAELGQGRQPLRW
Put plainly: cryo-EM structure. Format: binding. The conditions noted are these: co-purified, not added; G-domain active site; switch I in state 2, bound to mt-LSU assembly intermediate.

Assay [2] deals with T2, NSUN4 (MTERF4-NSUN4 complex) (Homo sapiens, UniProt Q96CB9).
T2 construct: with Transcription termination factor 4, mitochondrial
Put plainly: cryo-EM structure. The format is binding. The following applies: no RNA substrate in active site; co-purified, not added; complex bound to mt-LSU assembly intermediates.

Structures are written as SMILES.

T2 sequence (Q96CB9 26-384): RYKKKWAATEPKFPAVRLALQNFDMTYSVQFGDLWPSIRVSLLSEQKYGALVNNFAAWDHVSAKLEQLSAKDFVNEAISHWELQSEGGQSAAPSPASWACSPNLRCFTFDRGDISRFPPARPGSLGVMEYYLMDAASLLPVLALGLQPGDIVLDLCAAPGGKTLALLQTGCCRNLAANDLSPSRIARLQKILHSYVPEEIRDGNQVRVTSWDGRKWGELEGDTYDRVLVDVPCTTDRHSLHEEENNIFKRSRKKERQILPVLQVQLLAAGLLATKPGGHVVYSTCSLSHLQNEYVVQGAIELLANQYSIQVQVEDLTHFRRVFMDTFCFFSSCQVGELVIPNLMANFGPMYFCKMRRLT
T2 sequence (Q7Z6M4 43-381 partner): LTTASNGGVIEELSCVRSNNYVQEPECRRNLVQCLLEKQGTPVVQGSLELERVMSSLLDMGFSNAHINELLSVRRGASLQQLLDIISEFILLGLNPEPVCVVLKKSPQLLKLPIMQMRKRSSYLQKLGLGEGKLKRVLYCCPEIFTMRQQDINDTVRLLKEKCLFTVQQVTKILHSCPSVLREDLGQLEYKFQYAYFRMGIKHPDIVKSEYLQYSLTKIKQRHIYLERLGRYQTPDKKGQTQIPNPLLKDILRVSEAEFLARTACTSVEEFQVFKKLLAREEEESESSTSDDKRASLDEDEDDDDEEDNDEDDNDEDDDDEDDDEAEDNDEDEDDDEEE

Take `Nc1nc2c(ncn2[C@@H]2O[C@H](COP(=O)(O)OP(=O)(O)OP(=O)(O)O)[C@@H](O)[C@H]2O)c(=O)[nH]1` [GTP]: the cryo-EM structure entry in assay [1] is reported as “In our GTPBP5^IP structure, the G-domain has GTP in its active site”.
As to `C[S+](CC[C@H](N)C(=O)O)C[C@H]1O[C@@H](n2cnc3c(N)ncnc32)[C@H](O)[C@@H]1O` (some centres unmarked) [S-adenosyl-methionine], in assay [2], the cryo-EM structure result was “the methyl-donor S-adenosyl-methionine (SAM) is observed in the NSUN4 active site”.

The values are drawn from PMC8209036, “Structural basis for late maturation steps of the human mitoribosomal large subunit” (Nature Communications, 2021).
